Data: patent US10195254B2, “Myristoylated leptin-related peptides and uses thereof” (ALBANY MEDICAL COLLEGE, priority 2014, dated 2019)
Where two headings read alike, the source gives them in different places. One block for each molecule: values may come before it. Where a SMILES comes first, the peptide text is derived from it. Where no end group is shown, it is not given here. [ ]: non-standard residue; d: D form. The star is where a group is joined. Myristoyl = CCCCCCCCCCCCCC(=O)*

Legend:
[1] = mouse, in vivo
Method: (§5) Three to four week-old male Swiss Webster mice weighing between 12 and 15 g were obtained from Charles River Laboratories (Troy, N.Y., USA). The animals were housed three per cage in polycarbonate cages fitted with stainless steel wire lids and air filters, and supported on ventilated racks (Thoren Caging Systems, Hazelton, Pa., USA) in the Albany Medical College Animal Resources Facility. The mice were maintained at a constant temperature (24° C.) with lights on from 07:00 to 19:00 h, and allowed food and water ad libitum until used for uptake studies.
(§6) For oral and intranasal delivery, MA-[D-Leu-4]-OB3 was dissolved in 0.3% Intravail® (Aegis Therapeutics, San Diego, Calif., USA) reconstituted in sterile deionized water at a concentration of 0.1 mg/100 μL and 0.1 mg/10 μL, respectively. At time zero (0), a single 200 μl SC, IM, or IP injection of mouse MA-[D-Leu-4]-OB3 was given to each of three mice per time point. Intranasal delivery was achieved by lightly anesthetizing the mice with isoflurane (1-4%) and delivering 10 μl of MA-[D-Leu-4]OB3 into the nares using a Gilson® P-20 pipettor. Following peptide administration, the mice were transferred to separate cages for the designated time period.
(§7) One, two, four, six, 18, and 24 h after peptide delivery, the mice were anesthetized with isoflurane (5%) and exsanguinated by cardiac puncture. The blood was collected in sterile non-heparinized plastic centrifuge tubes and allowed to stand at room temperature for 1 h. The clotted blood was rimmed from the walls of the tubes with sterile wooden applicator sticks. Individual serum samples were prepared by centrifugation for 30 min at 2600×g in an Eppendorf 5702R, A-4-38 rotor (Eppendorf North America, Westbury, N.Y., USA), pooled by time point, and stored frozen until assayed for MA-[D-Leu-4]OB3 content.
(§8) MA-[D-Leu-4]-OB3 concentrations in the pooled serum samples were measured with a competitive ELISA, developed and validated by the present inventors, with the following modification: MA-[D-Leu-4]-OB3 was used to construct the standard curve. Cross-reactivity of MA-[D-Leu-4]-OB3 with the polyclonal antibody to [D-Leu-4]-OB3 used in the ELISA was 100%. Each serum sample was assayed in duplicate. Intra- and inter-assay coefficients of variation were 0.03% and 0.2%, respectively.
(§9) Serum concentrations of MA-[D-Leu-4]OB3 vs. time following SC, IP, IM, oral, or intranasal delivery were plotted using the graphics program SigmaPlot 8.0 (SPSS Science, Chicago, Ill., USA). The area under each curve (AUC) was calculated with a function of this program, and expressed as ng/ml/min.
(§10) The period of time required for the serum concentration of MA-[D-Leu-4]OB3 to be reduced to exactly one-half of the maximum concentration achieved following IP, SC, IM, oral, and intranasal administration was calculated using the following formula: t1/2=0.693/kelim
(§11) where kelim represents the elimination constant, determined by plotting the natural log of each of the concentration points in the beta phase of the uptake profiles against time.

[2] = Body weight gain, food and water intake in STZ-induced hyperglycemic mice; assay type: in vivo, male Swiss Webster mice
Method: (§1) Streptozotocin (STZ)-induced male Swiss Webster mice were used in these studies to examine the effects of MA-[D-Leu-4]-OB3 on body weight gain and insulin sensitivity in an insulin-deficient mouse model of diabetes. Using this model, the insulin sensitizing effects of MA-[D-Leu-4]-OB3 was compared with those of another well-characterized insulin-sensitizing drug, metformin.
(§2) Seven-week old male Swiss Webster mice were rendered hyperglycemic with a single intraperitoneal (ip) dose of 150 mg/kg STZ. Fasting blood glucose levels were measured prior to STZ treatment to establish normal (non-diabetic) glucose levels, and every day thereafter to assess hyperglycemia. Fasting blood glucose levels were routinely 3- to 4-fold higher than normal 4-5 days after STZ treatment.
(§3) Detemir insulin (Levemir®, Novo Nordisk, Malov, Denmark) delivery pens were used to dispense 0.025 U/100 μL phosphate buffered saline (PBS), and delivered by subcutaneous (sc) injection twice daily between 8:00 and 9:00 a.m. and 4:00 and 5:00 p.m. for 14 days. MA-[D-Leu-4]-OB3 (NeoBiolab, Cambridge, Mass.) and metformin (Sigma Aldrich, St. Louis, Mo.) were dissolved in 0.3% dodecyl maltoside (DDM, Intravail®, Aegis Therapeutics, San Diego, Calif.) reconstituted in sterile deionized water, and delivered twice daily by oral gavage between 8:00 h and 9:00 h and 16:00 h and 17:00 h at a concentration of 5 mg/kg/100 μL or 100 mg/kg/100 uL, respectively, for 14 days.
(§4) On day zero and each day thereafter, food and water intake were measured, and the mice were weighed in the morning between 8:00 h and 9:00 h. To assure fasting (8 hour) glucose levels on the days blood glucose was measured, food was removed from the cages between 8:00 h and 9:00 h and replaced immediately after measurement.

[3] = system: STZ-induced hyperglycemic male Swiss Webster mice; test: Fasting blood glucose in STZ-induced hyperglycemic mice; assay type: in vivo
Method: as §1, §2, §3, §4

[4] = system: male BKS.Cg-Dock7m+/+Leprdb/J diabetic db/db mice; test: Fasting blood glucose in db/db mice after oral delivery in PBS or 0.3% DDM; assay type: in vivo; details: oral gavage once daily
Method: Studies comparing the effects of oral delivery of myristic acid-conjugated [D-Leu-4]-OB3 in PBS or 0.3% dodecyl maltoside (DDM, Intravail®) on fasting blood glucose in six to seven week-old male BKS.Cg-Dock7^m+/+Lepr^db/J diabetic db/db mice.
Male db/db mice were given increasing concentrations of MA-[D-Leu-4]-OB3 in either PBS or DDM orally by gavage once daily in the evening for 14 consecutive days. Fasting (8 hours) blood glucose levels were measured every other day using an Accu-Chek Nano glucose meter (Roche, Indianapolis, Ind.).

[5] = mouse, in vivo; remark: listed apart in the source
Method: as §5, §6, §7, §8, §9, §10, §11

[6] = in vivo, cited from earlier work

half-life ([1]; half-life): ≤ 1680 min
AUC ([1]; im, 0.1 mg): 842 µg·h/mL
Cmax ([1]; im, 0.1 mg): 89800 ng/mL
Tmax ([1]; im, 0.1 mg): 2 h
half-life ([1]; im, 0.1 mg, t1/2): 330 min
AUC ([1]; inhaled or intranasal, 0.1 mg): 158 µg·h/mL
Cmax ([1]; inhaled or intranasal, 0.1 mg): 10000 ng/mL
Tmax ([1]; inhaled or intranasal, 0.1 mg): 6 h
half-life ([1]; inhaled or intranasal, 0.1 mg, t1/2): 492 min
AUC ([1]; ip, 0.1 mg): 1210 µg·h/mL
Tmax ([1]; ip, 0.1 mg): 2 h
half-life ([1]; ip, 0.1 mg, t1/2): 246 min
AUC ([1]; po, 0.1 mg): 278 µg·h/mL
Cmax ([1]; po, 0.1 mg): 14400 ng/mL
Tmax ([1]; po, 0.1 mg): 4 h
half-life ([1]; po, 0.1 mg, t1/2): 1730 min
AUC ([1]; sc, 0.1 mg): 1830 µg·h/mL
Tmax ([1]; sc, 0.1 mg): 2 h
half-life ([1]; sc, 0.1 mg, t1/2): 120 min
period of absorption [5]: 2 to 6 h
relative bioavailability [5]: 5.3
Plasma CL ([5]; im, 0.1 mg): 0.12 mL/min
clearance ([5]; im, 0.1 mg): 0.12 mL/min
t1/2 ([5]; im, 0.1 mg): 5.9 h
reduction of Cmax ([5]; inhaled or intranasal): 80%
relative bioavailability ([5]; inhaled or intranasal): 1.0
Plasma CL ([5]; inhaled or intranasal, 0.1 mg): 0.63 mL/min
Vd ([5]; inhaled or intranasal, 0.1 mg): 447.0 mL
clearance ([5]; inhaled or intranasal, 0.1 mg): 0.63 mL/min
relative bioavailability ([5]; ip): 7.7
Clearance from the plasma ([5]; ip, 0.1 mg): 0.08 mL/min
Vd ([5]; ip, 0.1 mg): 30.9 mL
clearance ([5]; ip, 0.1 mg): 0.0798 mL/min
t1/2 ([5]; ip, 0.1 mg): 4.5 h
reduction of Cmax ([5]; po): 31%
relative bioavailability ([5]; po): 1.8
Plasma CL ([5]; po, 0.1 mg): 0.36 mL/min
Vd ([5]; po, 0.1 mg): 900.8 mL
clearance ([5]; po, 0.1 mg): 0.36 mL/min
relative bioavailability ([5]; sc): 11.7
Plasma CL ([5]; sc, 0.1 mg): 0.05 mL/min
Vd ([5]; sc, 0.1 mg): 8.6 mL
clearance ([5]; sc, 0.1 mg): 0.05 mL/min
Molecule: CCCCCCCCCCCCCC(=O)N[C@@H](CO)C(=O)N[C@@H](CS)C(=O)N[C@@H](CO)C(=O)N[C@H](CC(C)C)C(=O)N1CCC[C@H]1C(=O)N[C@@H](CCC(N)=O)C(=O)N[C@H](C(N)=O)[C@@H](C)O [MA-[D-Leu-4]-OB3] (Myristoyl-SCS[dL]PQT-NH2)
heavier at the end of the 14-day test period (body weight gain) [2]: 8.1%
Cumulative food intake ([2]; 14 days): 103.3 ± 2.3 gm/mouse
Cumulative water intake ([2]; 14 days): 452.5 ± 6.4 mL/mouse
body weight % of initial ([2]; after 14 days): 108.1%
body weight Change ([2]; after 14 days): +2.0 gm
Final body weight ([2]; after 14 days twice daily: MA-[D-Leu-4]-OB3 5 mg/kg oral, metformin 100 mg/kg oral, insulin 0.025 U sc): 26.8 ± 1.6 gm
Initial body weight ([2]; baseline, STZ mice): 24.8 ± 1.4 gm
effect on fasting blood glucose levels ([3]; 14 day study, combination: within two days and throughout the study): very little effect
blood glucose % of initial ([3]; after 14 days): 98.8%
blood glucose Change ([3]; after 14 days): -6 mg/dL
Initial blood glucose ([3]; baseline, fasting): 507.0 ± 6.0 mg/dL
reduction of fasting blood glucose levels ([3]; end of 14-day test period versus beginning): 1.2%
Final blood glucose ([3]; fasting, after 14 days twice daily: MA-[D-Leu-4]-OB3 5 mg/kg oral, metformin 100 mg/kg oral, insulin 0.025 U sc): 501.0 ± 12.3 mg/dL
times more effective than metformin in improving insulin sensitivity ([3]; on a mass basis, 10 mg/kg/day vs. 200 mg/kg/day): 20 times
times more effective than metformin in improving insulin sensitivity ([3]; on a molar basis): 6.1 times
fasting blood glucose levels ([4]; 100 or 250 mcg/day in 0.3% DDM, 14 days): significantly reduced
fasting blood glucose levels ([4]; 250 mcg/day in 0.3% DDM, end of 14-day treatment): reduced to levels seen in non-diabetic BKS mice
fasting blood glucose levels ([4]; 250 or 500 mcg/day in PBS, after 14 days): unchanged from those in control mice receiving PBS alone

Molecule: [D-Leu-4]-OB3: synthetic peptide amide with leptin-like activity that has the sequence SCSLPQT (SEQ ID NO:1); non-myristoylated comparator (SCS[dL]PQT-NH2)
AUC ([6]; im, 1 mg): 1,481,060 ng/ml/min
Cmax ([6]; im, 1 mg): 46,566 ng/ml
Plasma CL ([6]; im, 1 mg): 0.68 mL/min
Tmax ([6]; im, 1 mg): 5 min
Vd ([6]; im, 1 mg): 29.4 mL
t1/2 ([6]; im, 1 mg): 36 min
AUC ([6]; inhaled or intranasal, 1 mg): 4,336,963 ng/ml/min
Plasma CL ([6]; inhaled or intranasal, 1 mg): 1.37 mL/min
Vd ([6]; inhaled or intranasal, 1 mg): 15.4 mL
t1/2 ([6]; inhaled or intranasal, 1 mg): 41 min
AUC ([6]; ip, 1 mg): 1,072,270 ng/ml/min
Cmax ([6]; ip, 1 mg): 22,519 ng/ml
Tmax ([6]; ip, 1 mg): 5 min
Vd ([6]; ip, 1 mg): 65.5 mL
clearance ([6]; ip, 1 mg): 0.93 mL/min
t1/2 ([6]; ip, 1 mg): 49 min
AUC ([6]; po, 1 mg): 552,710 ng/ml/min
Cmax ([6]; po, 1 mg): 8,574 ng/ml
Plasma CL ([6]; po, 1 mg): 1.81 mL/min
Tmax ([6]; po, 1 mg): 50 min
Vd ([6]; po, 1 mg): 47.9 mL
t1/2 ([6]; po, 1 mg): 20 min
AUC ([6]; sc, 1 mg): 1,182,498 ng/ml/min
Cmax ([6]; sc, 1 mg): 35,063 ng/ml
Plasma CL ([6]; sc, 1 mg): 0.85 mL/min
Tmax ([6]; sc, 1 mg): 5 min
Vd ([6]; sc, 1 mg): 42.9 mL
t1/2 ([6]; sc, 1 mg): 34 min
period of absorption [6]: 5 to 60 min
